Patent publication US7482328B2, “Antimicrobial polypeptide and utilization thereof” (Toagosei Co., Ltd., priority 2002, dated 2009)
No end group written: not given here.

Columns and labels:
Assay type in all cases: cell-based
[1] = test system: gram-negative bacteria (E. coli) and gram-positive bacteria (S. aureus); assay: antimicrobial test of Example 2, results summed up in words; conditions: summary of Table 2, E. coli and S. aureus
Procedure: (§1) Regarding the antimicrobial polypeptide of the present invention (samples 1 to 33) and the polypeptides of comparative samples 1 to 3, the antimicrobial activities (minimum inhibitory concentration: MIC) with respect to gram-negative bacteria (E. coli) and gram-positive bacteria (S. aureus) were determined by a liquid medium dilution technique using a 96-well microplate.
(§2) More specifically, liquid bouillon media (“NUTRIENT BROTH Dehydraged” manufactured by DIFCO) in a polypeptide concentration of 500, 250, 125, 62.5, 31.3, 15.6, 7.8, 3.9, 1.9, 1.0 and 0.5 μM were prepared, and filled in a 96-well microplate. On the other hand, bacteria suspension (about 2×10^6 cells/mL) that had been stationary cultured at 37° C. for 18 hours with LB Broth, Lennox (manufactured by DIFCO) were inoculated to each well of the 96-well microplate in an equal amount to that of the pharmaceutical solution (the above-described polypeptide-containing bouillon medium). After inoculation, culture was started in an incubator at 37° C., and it was examined based on the turbidity after 24 hours and 48 hours whether or not bacteria are present. The minimum of the polypeptide concentrations in which no increase in the turbidity caused by bacteria at the time of measurement was observed was defined as MIC in this example.

[2] = test system: Pseudomonas aeruginosa ATCC10145; conditions: ATCC10145, 24 h
Procedure: as §2
(§3) Next, regarding the polypeptides of the samples 16, 17, 10, 14, and 20, the same antimicrobial test (MIC measurement test) as in Example 2 was performed with respect to various bacteria (see Table 3), and the antimicrobial spectra of these polypeptides were evaluated.

Bacillus brevis IFO15304 = test system: Bacillus brevis IFO15304
Procedure: as §2, §3

[3] = test system: Salmonella enteritidis IFO3313; conditions: IFO3313, 24 h
Procedure: as §2, §3

[4] = test system: Staphylococcus aureus RN450 (*MSSA); conditions: RN450 (*, 24 h)
Procedure: as §2, §3

[5] = test system: Bacillus subtilis IFO3134; conditions: IFO3134, 24 h
Procedure: as §2, §3

Bacillus pumilus IFO3813 = test system: Bacillus pumilus IFO3813
Procedure: as §2, §3

[6] = test system: Escherichia coli IFO12713; conditions: IFO12713, 24 h
Procedure: as §2, §3

[7] = test system: Escherichia coli O157:H7 sakai; conditions: O157:H7, 24 h
Procedure: as §2, §3

[8] = test system: Bacillus subtilis ATCC6633; conditions: ATCC6633, 24 h
Procedure: as §2, §3

[9] = test system: Staphylococcus aureus COL (MRSA)
Procedure: as §2, §3

[10] = test system: Micrococcus luteus IFO12708; conditions: IFO12708, 24 h
Procedure: as §2, §3

Bacillus cereus IFO3001 = conditions: IFO3001, 24 h
Procedure: as §2, §3

[11] = test system: Pseudomonas aeruginosa IFO3080; conditions: IFO3080, 24 h
Procedure: as §2, §3

[12] = test system: Salmonella typhimurium IFO1324; conditions: murium IFO1324, 24 h
Procedure: as §2, §3

Bacillus cereus IFO15305 = conditions: IFO15305, 24 h
Procedure: as §2, §3

[13] = test system: Proteus vulgaris ATCC13315; conditions: ATCC13315, 24 h
Procedure: as §2, §3

[14] = test system: Klebsiella pneumoniae ATCC4352; conditions: ATCC4352, 24 h
Procedure: as §2, §3

E. coli = test system: E. coli
Procedure: as §1, §2
(§4) The unit of MIC in Table 2 is μM. […]

S. aureus = test system: S. aureus
Procedure: as §1, §2, §4

[15] = test system: Staphylococcus aureus IID1677 (MRSA); conditions: IID1677, 24 h
Procedure: as §2, §3

[16] = test system: Staphylococcus aureus IFO12732; conditions: IFO12732, 24 h
Procedure: as §2, §3

Sequence | antimicrobial activity after 24 hours: MIC [2] | antimicrobial activity after 24 hours: MIC (Bacillus brevis IFO15304) | antimicrobial activity after 24 hours: MIC [3] | antimicrobial activity after 24 hours: MIC [4] | antimicrobial activity after 24 hours: MIC [5] | antimicrobial activity after 24 hours: MIC (Bacillus pumilus IFO3813) | antimicrobial activity after 24 hours: MIC [6] | antimicrobial activity after 24 hours: MIC [7] | antimicrobial activity after 24 hours: MIC [8] | antimicrobial activity after 24 hours: MIC [9] | antimicrobial activity after 24 hours: MIC [10] | antimicrobial activity after 24 hours: MIC (Bacillus cereus IFO3001) | antimicrobial activity after 24 hours: MIC [11] | antimicrobial activity after 24 hours: MIC [12] | antimicrobial activity after 24 hours: MIC (Bacillus cereus IFO15305) | antimicrobial activity after 24 hours: MIC [13] | antimicrobial activity after 24 hours: MIC [14] | antimicrobial activity (MIC) E. coli after 48h (E. coli) | antimicrobial activity (MIC) S. aureus after 24h (S. aureus) | antimicrobial activity (MIC) S. aureus after 48h (S. aureus) | also measured
RKKKRKVLALKLAGLDI [sample 14, RKKKRKVLALKLAGLDI] | 32.0 µM | 128.2 µM | 32.0 µM | 16.0 µM | 1.0 µM | 4.0 µM | 8.0 µM | 8.0 µM | 1.0 µM | 16.0 µM | 4.0 µM | 32.0 µM | 16.0 µM | >256.3 µM | 64.1 µM | 64.1 µM | 32.0 µM | 3.9 µM | 1.0 µM | 1.9 µM | antimicrobial activities (in words) [1]: high antimicrobial activities; antimicrobial activity (MIC) E. coli after 24h (E. coli): 3.9 µM
RKKKRKVRKKKRKV [sample 20, RKKKRKVRKKKRKV] | 4.2 µM | 133.9 µM | 4.2 µM | 33.5 µM | 4.2 µM | 16.7 µM | 8.4 µM | 8.4 µM | 2.1 µM | 33.5 µM | 8.4 µM | >267.9 µM | 4.2 µM | 8.4 µM | 133.9 µM | 8.4 µM | 4.2 µM | 1.9 µM | 1.9 µM | 1.9 µM | antimicrobial activity after 24 hours: MIC [15]: 8.4 µM; antimicrobial activity after 24 hours: MIC [16]: 4.2 µM; antimicrobial activity (MIC) E. coli after 24h (E. coli): 1.9 µM
RIRKKLRRIRKKLR [sample 17, RIRKKLRRIRKKLR] | 8.1 µM | >260.3 µM | 4.1 µM | 32.5 µM | 0.5 µM | 16.3 µM | 8.1 µM | 8.1 µM | 1.0 µM | 16.3 µM | 4.1 µM | >260.3 µM | 8.1 µM | 4.1 µM | >260.3 µM | 8.1 µM | 8.1 µM | 3.9 µM | 3.9 µM | 3.9 µM | antimicrobial activity after 24 hours: MIC [15]: 8.1 µM; antimicrobial activity after 24 hours: MIC [16]: 2.0 µM
